Assay results as given in article PMC11945201, “Enhancing the Oral Bioavailability of Glutathione Using Innovative Analogue Approaches” (Pharmaceutics, 2025).

Tests used:
[1] = test system: Caco-2, Fibroblast, and HT29-MTX-E12 cells; experiment: Cytotoxicity by MTT cell viability; assay type: cell-based; details: for IC50: Homo sapiens, 24 h incubation, cell line not split in table (Caco-2, Fibroblast, HT29-MTX-E12), highest usable concentration 3.25 mmolL^−1
Experimental: All cell culture studies were conducted in aseptic conditions. Incubation was maintained at an atmosphere of 37.0 °C, 5% CO2, and 95% relative humidity. The caco-2 cells were grown in complete Dulbecco’s modified Eagle’s medium (DMEM), which was prepared by adding 10% foetal bovine serum (FBS), 1% penicillin-streptomycin (P-S), and 1% non-essential amino acids (NEAA) to sterile DMEM. Cells were cultured in T-25 and T-75 tissue culture flasks, and the medium was exchanged every 3 days until 90% confluence was reached. Cells were detached and subcultured with 0.25% Trypsin-EDTA. The suspended cell concentration was determined by cell counting.
Cytotoxicity was measured by measuring cell viability using MTT. Then, 90% confluent cells were detached by 0.25% trypsin-EDTA, which were then counted and seeded into sterile 96-well plates. Caco-2 cells were seeded into 96-well plates at a density of 100,000 cells per well and incubated for 24 h prior to the experiment. Fibroblast cells were seeded into 96-well plates at a density of 10,000 cells per well and incubated for 24 h prior to the experiment. HT-29 cells were seeded into 96-well plates at a density of 10,000 cells per well and incubated for 24 h prior to the experiment. The supernatant in each well were discarded and the attached cells were washed using serum-free Fluorobite^TM DMEM twice to remove any phenol red. The peptide, at concentrations of 10 mgmL^−1, 1 mgmL^−1, 0.1 mgmL^−1, 0.01 mgmL^−1, 0.001 mgmL^−1, and 0.0001 mgmL^−1 were dissolved in serum-free Fluorobite^TM DMEM. The total volume of sample in each well used was 100 μL. The cells were incubated with the peptide for 24 h. Cells were also incubated with serum-free DMEM (positive control) and 2% Triton-X (negative control) for 24 h. The supernatant in each well was then discarded and washed using serum-free Fluorobite^TM DMEM. MTT (100 μL, 1.2 mmolL^−1) dissolved in Fluorobite^TM DMEM was then added to each well and incubated for 2 h for MTT conversion into formazan. The supernatant was then discarded, and the cells were washed using Fluorobite^TM DMEM to remove any residual MTT and formazan that were not attached to cellular mitochondria. Formazan was dissolved in dimethyl sulfoxide (DMSO) (50 μL), and the absorbance was measured on a microplate reader at a wavelength of 570 nm. Cell viability was expressed as a percentage of the positive control and calculated as follows (where Aexp is the absorbance at 570 nm of the experimental group, Aneg is the absorbance at 570 nm of the negative control, and Acon is the cell viability of the positive control): Cell viability = (Aexp − Aneg)/(Acon − Aneg).

Fibroblast cells = experiment: UV rescue of UVA-irradiated fibroblast cells (MTT); assay type: cell-based; details: for % Cell Viability (with UV): UVA 1 h, then peptide 0.0325 mmolL^−1, 24 h
Experimental: Fibroblast cells were seeded into 96-well plates at a density of 10,000 cells per well determined by cell counting. Cells were allowed to settle and attach for 24 h before the addition of peptides. The supernatant in each well was discarded, and the attached cells were washed using serum-free DMEM twice. One group of cells was exposed to UVA under a UV lamp for 1 h. A second group of cells was not exposed to UV irradiation. The supernatant was removed from each well of both groups and replaced with peptide (100 μL, 0.0325 mmolL^−1), which was then dissolved in Fluorobite^TM DMEM. Each plate, including 2 wells of both groups was also incubated with serum-free DMEM (positive control) and 2% Triton-X (negative control) for 24 h. The supernatant in each well of both groups was then discarded and the cells washed using PBS. MTT (100 μL, 6 mmolL^−1) that was dissolved in HBSS was then added to each well and incubated for 2 h for MTT conversion into formazan. The supernatant was then discarded, and the cells were washed using PBS to remove any residual MTT and formazan that were not attached to the cellular mitochondria. Formazan was dissolved in DMSO (50 μL), and the absorbance was measured on a microplate reader at a wavelength of 570 nm.

[2] = Pharmacokinetic study after IV injection or oral gavage; assay type: in vivo, male Sprague Dawley rat; details: for AUC / bioavailability / half-life: male, plasma; for AUC / bioavailability: Sprague-Dawley; for AUC / half-life: 75 mg per rat; for AUC: AUC0-48, mean ± SD, n = 4; for bioavailability: rat, po, 75 mg; for half-life: read-out: plasma t½
Experimental: Pharmacokinetic studies were conducted using a male Sprague Dawley rat model. […] The animal experiments were performed in China, complying with the guide for care and use of laboratory animals. […] The collected blood samples were centrifuged at 7104× g for 5 min, and the plasma was stored at -70 °C until analysis. The plasma protein was precipitated by the addition of 1 mL of ACN, which was then vortexed for 1 min and centrifuged at 30,065× g for 15 min. […] The 1.70 concentration for each group (oral/IV) was determined using a modified LC-MS method adapted from the GSH protocol. Briefly, blood samples containing 1.70 were analysed separately by positive mode LC-MS using an Agilent 1100 series HPLC (Agilent Technology, Inc., Santa Clara, CA, USA) coupled with an Agilent 6530 Accurate Mass Q-TOF LC/MS (Agilent Technology, Inc., Santa Clara, CA, USA), which was equipped with a dual jet stream electrospray ionisation source. Chromatographic separation was achieved on a Zorbax SB C18 column (5 μm, 3 × 150 mm) maintained at 40 °C. […] The flow rate was set at 0.5 mL/min with an injection volume of 8 μL. Mass spectrometer settings were configured for m/z transitions of 319.1→215.2, with a fragmentor voltage of 180 V. The instrument parameters were as follows: a gas flow of 10 L/min, a gas temperature of 275 °C, a sheath gas flow of 12 L/min, a sheath gas temperature of 300 °C, a nebuliser pressure of 40 psi, a capillary voltage of 3000 V, and a nozzle voltage of 500 V. This method was developed and validated through triplicate linearity studies at concentrations ranging from 30 to 5000 ng/mL according to the International Conference on Harmonization (ICH) guidelines. Data were acquired and analysed using Agilent Mass Hunter Software (version A.02.17).

Row | Compound | IC50 [1] [mM] | % Cell Viability (with UV) (Fibroblast cells; mean ± SD, n = 6) [%] | % Cell Viability (no UV) (Fibroblast cells; peptide 0.0325 mmolL^−1, 24 h, no UV, mean ± SD, n = 6) [%] | AUC ([2]; IV) [ng·h/mL] | AUC ([2]; oral) [ng·h/mL] | bioavailability [2] [%] | half-life ([2]; Sprague Dawley rats) [min] | cytotoxicity (in words) ([1]; up to 3.25 mmolL^−1) | cell viability versus untreated groups (in words) (Fibroblast cells; UV rescue) | fold increase in oral bioavailability compared to native GSH ([2]; Sprague Dawley rats) [fold] | fold increase in plasma t½ compared to native GSH ([2]; Sprague Dawley rats) [fold]
1 | N[C@@H](CCC(=O)N[C@@H](CS)C(=O)NCC(=O)O)C(=O)O [GSH, Glutathione] | > 3.25 | 87.7 ± 4.5 | 100.0 ± 8.1 | 5350 ± 2480 | 36 ± 8 | 0.7 ± 0.1 | 2 |  |  |  | 
2 | CN(C(=O)CC[C@H](N)C(=O)O)[C@@H](CS)C(=O)NCC(=O)O [Compound 1.70] | > 3.25 | 112.4 ± 9.7 |  | 727 ± 42 | 82 ± 8 | 11.3 ± 1.2 | 33.6 | no cytotoxicity detected | significantly higher cell viability than the untreated groups | 16.1 | 16.8
